Values quoted from earlier work in patent EP4691467A1, “USE OF INHIBITOR SPECIFICALLY TARGETING NLRP3 INFLAMMASOME” (Sichuan Jianlin Pharmaceutical Co., Ltd, priority 2023, dated 2024).

Assays:
IL-18 = settings: Muckle Wells syndrome
[1] = test system: experimental autoimmune encephalomyelitis (EAE); settings: in vivo
ASC specks = settings: cells pre-treated with MCC950, pro-inflammatory conditions
[2] = phase II clinical trials, rheumatoid arthritis; trials suspended

CC(C)(O)c1coc(S(=O)(=O)NC(=O)Nc2c3c(cc4c2CCC4)CCC3)c1 [MCC950]
lethality of newborn mice (CAPS mouse model): reduce | extension of lifespan (CAPS mouse model; newborn mice): ~20 days | release of IL-18 in plasma (IL-18): shows efficacy in inhibiting | severity of disease models of multiple sclerosis (EAE) [1]: attenuate | formation of ASC specks (ASC specks): inhibit | hepatotoxicity [2]: excessive hepatotoxicity | production of IL-1β in vivo (IL-1β): reduce
